Data on 13 compounds can be found in patent publication EP4752152A1, “STEROID COMPOUND, AND PREPARATION METHOD THEREFOR AND USE THEREOF” (Cholesgen (Shanghai) Co.Ltd., priority 2023, dated 2025).

Assay [1] concerns Fatty Acid Synthase (FASN) gene. Description: Inhibition of FASN gene expression (qPCR) in Huh-7 cells. In kind it is cell-based, human. The conditions noted are these: Homo sapiens, Huh-7, 16 h, Huh-7 cells, starvation medium, 16 hours, qPCR; class symbols; read-out: FASN IC50. The protocol:
Huh-7 cells (purchased from ATCC) were cultured in DMEM medium (containing 10% fetal bovine serum LONSERA S711-001S) at 37°C in a 5% CO2 incubator. After 24 hours, the original medium was aspirated and replaced with DMEM starvation medium (containing 5% lipoprotein deficient serum (LPDS), 2 µM lovastatin, and 10 µM mevalonate). The control group was treated with dimethyl sulfoxide (DMSO), while the compound treatment groups were treated with different concentrations of compounds. The highest concentration of the compound was 3000 nM, with 3-fold dilutions, totaling 5 concentrations. The cells were cultured for 16 hours. Cell lysis was performed, followed by reverse transcription from cells to cDNA, and qPCR was performed to detect the expression of the SREBP target gene Fatty Acid Synthase (FASN) gene (FASN gene forward primer sequence: 5'-[…]-3', reverse primer sequence: 5'-[…]-3'). The IC50 was calculated. The test data for each test compound were analyzed using Prism software (with the DMSO-treated group as the reference to calculate the compound inhibition rate, fitted using the Prism log(inhibitor) vs. responseVariable slope (four-parameter) model, calculation formula: Y = Bottom + (Top - Bottom)/(1 + 10^((LogIC50 - X) × HillSlope))), to obtain the IC50 parameters of the compounds. Table 4: Inhibition results of FASN gene expression by compounds from some examples
Background: Quantitative PCR measures a nucleic acid by following its amplification.

For another assay, the system named is SREBP pathway. Put plainly: SREBP luciferase reporter gene system (SRE-luciferase assay). In kind it is cell-based, human. The conditions noted are these: Homo sapiens, Huh-7, 16 h, Huh-7/SRE-luc cells, sterol-deficient medium, 0.01-10 µM. In short, it runs like this: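 Readout was SRE-driven luciferase normalised to GFP fluorescence in lysates of stably transfected Huh-7/SRE-luc hepatoma cells. Compounds (0.01, 0.03, 0.1, 0.3, 1.0, 3.0, 10 µM; DMSO control) were applied for 16 h in sterol-depleted medium with 2 µM lovastatin and 10 µM mevalonate; IC50 from variable-slope fit.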
A general note: A reporter such as luciferase makes a cellular process visible.

Usually IC50 stands for the concentration at which inhibition is half-maximal.

As for `COc1cccc(F)c1[C@H](O)CC[C@@H](C)[C@H]1CC[C@H]2[C@H]3[C@H](CC[C@]12C)[C@@]1(C)CC[C@H](O)[C@H](O)[C@@H]1CC3(F)F` [Compound 346, (1R,3aS,3bS,5aR,6R,7S,9aR,9bS,11aR)-4,4-difluoro-1-[(2R,5R)-5-(2-fluoro-6-methoxyphenyl)-5-hydroxypentan-2-yl]-9a,11a-dimethylhexadecahydro-1H-cyclopenta[1,2-a]phenanthrene-6,7-diol], the IC50 in assay [1] was < 200 nM; with SREBP pathway, 0.056 µM.

Consider `COc1nc(F)ccc1C(O)CCC[C@@H](C)[C@H]1CC[C@H]2C3=C(F)C[C@H]4[C@@H](O)[C@@H](O)CC[C@]4(C)[C@H]3CC[C@]12C` (stereo partly drawn) [Compound 107, (1R,3aR,5aR,6R,7S,9aR,9bR,11aR)-4-fluoro-1-[(2R)-6-(6-fluoro-2-methoxypyridin-3-yl)-6-hydroxyhexan-2-yl]-9a,11a-dimethyl-2,3,3a,5,5a,6,7,8,9,9a,9b,10,11,11a-tetradecahydro-1H-cyclopenta[1,2-a]phenanthrene-6,7-diol], for which the values for the IC50 (in assay [1]; in the assay on SREBP pathway) were 200 to 500 nM and 0.0777 µM, respectively.

In the case of `C[C@H](CCC[C@@H](O)c1ccccn1)[C@H]1CC[C@H]2[C@H]3[C@H](CC[C@]12C)[C@@]1(C)CC[C@H](O)[C@H](O)[C@@H]1CC3(F)F` [Compound 92, (1R,3aS,3bS,5aR,6R,7S,9aR,9bS,11aR)-4,4-difluoro-1-[(2R,6R)-6-hydroxy-6-(pyridin-2-yl)hexan-2-yl]-9a,11a-dimethylhexadecahydro-1H-cyclopenta[1,2-a]phenanthrene-6,7-diol], the IC50 was < 200 nM in assay [1] and 0.371 µM with SREBP pathway.

Regarding `C[C@H](CCCC(O)c1c(F)cccc1F)[C@H]1CC[C@H]2C3=C(F)CC4C[C@@H](O)CC[C@]4(C)[C@H]3CC[C@]12C` (stereo in doubt) [Compound 82, (1R,3aR,7S,9aS,9bR,11aR)-1-[(2R)-6-(2,6-difluorophenyl)-6-hydroxyhexan-2-yl]-4-fluoro-9a,11a-dimethyl-2,3,3a,5,5a,6,7,8,9,9a,9b,10,11,11a-tetradecahydro-1H-cyclopenta[1,2-a]phenanthren-7-ol], the values for the IC50 (in assay [1]; in the assay on SREBP pathway) were 200 to 500 nM and 0.357 µM, respectively.

Consider `COc1cc(F)c([C@@H](O)CCC[C@@H](C)[C@H]2CC[C@H]3[C@H]4[C@H](CC[C@]23C)[C@@]2(C)CC[C@H](O)[C@H](O)[C@@H]2CC4(F)F)c(F)c1Br` (single isomer, unassigned) [Compound 198], for which the IC50 in assay [1] is < 200 nM; with SREBP pathway it was 0.058 µM.

With `C[C@H](CCCC(O)c1cccnc1)[C@H]1CC[C@H]2[C@H]3[C@H](CC[C@]12C)[C@@]1(C)CC[C@H](O)[C@H](O)[C@@H]1CC3(F)F` (stereo partly drawn) [Compound 54, (1R,3aS,3bS,5aR,6R,7S,9aR,9bS,11aR)-4,4-difluoro-1-[(2R)-6-hydroxy-6-(pyridin-3-yl)hexan-2-yl]-9a,11a-dimethylhexadecahydro-1H-cyclopenta[1,2-a]phenanthrene-6,7-diol], the 50% inhibitory concentration (IC50) is 200 to 500 nM in assay [1] and 0.35 µM with SREBP pathway.

As to `COc1ncccc1C(O)CCC[C@@H](C)[C@H]1CC[C@H]2[C@H]3[C@H](CC[C@]12C)[C@@]1(C)CC[C@H](O)[C@H](O)[C@@H]1CC3(F)F` (single isomer, unassigned) [Compound 192, (1R,3aS,3bS,5aR,6R,7S,9aR,9bS,11aR)-4,4-difluoro-1-[(2R,6S)-6-hydroxy-6-(^2-methoxypyridin-3-yl)hexan-2-yl]-9a,11a-dimethylhexadecahydro-1H-cyclopenta[1,2-a]phenanthrene-6,7-diol or (1R,3aS,3bS,5aR,6R,7S,9aR,9bS,11aR)-4,4-difluoro-1-[(2R,6R)-6-hydroxy-6-(2-methoxypyridin-3-yl)hexan-2-yl]-9a,11a-dimethylhexadecahydro-1H-cyclopenta[1,2-a]phenanthrene-6,7-diol], the half-maximal inhibitory concentration (IC50) in assay [1] was 200 to 500 nM; with SREBP pathway, 0.053 µM.

Turning to `C[C@H](CCC[C@@H](O)c1c(F)ccnc1F)[C@H]1CC[C@H]2[C@H]3[C@H](CC[C@]12C)[C@@]1(C)CC[C@H](O)[C@H](O)[C@@H]1CC3(F)F` (single isomer, unassigned) [Compound 232], the results for the IC50 (in assay [1]; in the assay on SREBP pathway) were 200 to 500 nM and 0.151 µM, respectively.

With `C[C@H](CCC[C@@H](O)c1nc2cnccc2n1C)[C@H]1CC[C@H]2[C@H]3[C@H](CC[C@]12C)[C@@]1(C)CC[C@H](O)[C@H](O)[C@@H]1CC3(F)F` (stereo in doubt) [Compound 326, (1R,3aS,3bS,5aR,6R,7S,9aR,9bS,11aR)-4,4-difluoro-1-[(2R,6R)-6-hydroxy-6-(1-methylimidazo[5,4-c]pyridin-2-yl)hexan-2-yl]-9a,11a-dimethylhexadecahydro-1H-cyclopenta[1,2-a]phenanthrene-6,7-diol], the IC50 was < 200 nM in assay [1] and 0.011 µM in the assay with SREBP pathway.

On to `C[C@H](CCCC(O)c1cccc2ncn(C)c12)[C@H]1CC[C@H]2[C@H]3[C@H](CC[C@]12C)[C@@]1(C)CC[C@H](O)[C@H](O)[C@@H]1CC3(F)F` (single isomer, unassigned) [Compound 299, (1R,3aS,3bS,5aR,6R,7S,9aR,9bS,11aR)-4,4-difluoro-1-[(2R,6R)-6-hydroxy-6-(3-methylbenzo[d]imidazol-4-yl)hexan-2-yl]-9a,11a-dimethylhexadecahydro-1H-cyclopenta[1,2-a]phenanthrene-6,7-diol or (1R,3aS,3bS,5aR,6R,7S,9aR,9bS,11aR)-4,4-difluoro-1-[(2R,6S)-6-hydroxy-6-(3-methylbenzo[d]imidazol-4-yl)hexan-2-yl]-9a,11a-dimethylhexadecahydro-1H-cyclopenta[1,2-a]phenanthrene-6,7-diol], for which the IC50 is < 200 nM in assay [1] and 0.033 µM with SREBP pathway.

For `C[C@H](CCCC(O)c1ccc(F)cc1F)[C@H]1CC[C@H]2[C@H]3[C@H](CC[C@]12C)[C@@]1(C)CC[C@H](O)[C@H](O)[C@@H]1CC3(F)F` (stereo partly drawn) [Compound 102, (1R,3aS,3bS,5aR,6R,7S,9aR,9bS,11aR)-1-[(2R)-6-(2,4-difluorophenyl)-6-hydroxyhexan-2-yl]-4,4-difluoro-9a,11a-dimethylhexadecahydro-1H-cyclopenta[1,2-a]phenanthrene-6,7-diol], the IC50 was < 200 nM in assay [1] and 0.14 µM in the assay with SREBP pathway.

Consider `COc1nc(F)ccc1[C@H](O)CCC[C@@H](C)[C@H]1CC[C@H]2[C@H]3[C@H](CC[C@]12C)[C@@]1(C)CC[C@H](O)C[C@@H]1CC3(F)F` [Compound 313, (1R,3aS,3bR,5aR,7S,9aS,9bS,11aR)-4,4-difluoro-1-[(2R,6R)-6-(6-fluoro-2-methoxypyridin-3-yl)-6-hydroxyhexan-2-yl]-9a,11a-dimethylhexadecahydro-1H-cyclopenta[1,2-a]phenanthren-7-ol], for which the IC50 in assay [1] was 500 to 900 nM; in the assay on SREBP pathway, 0.076 µM.

Consider `COc1ccc(C(O)CCC[C@@H](C)[C@H]2CC[C@H]3[C@H]4[C@H](CC[C@]23C)[C@@]2(C)CC[C@H](O)[C@H](O)[C@@H]2CC4(F)F)c(F)c1` (stereo partly drawn) [Compound 67, (1R,3aS,3bS,5aR,6R,7S,9aR,9bS,11aR)-4,4-difluoro-1-[(2R)-6-(2-fluoro-4-methoxyphenyl)-6-hydroxyhexan-2-yl]-9a,11a-dimethylhexadecahydro-1H-cyclopenta[1,2-a]phenanthrene-6,7-diol], for which the IC50 in assay [1] is 200 to 500 nM; with SREBP pathway, 0.203 µM.
